Data taken from ChEMBL document CHEMBL1201862, “PubChem BioAssay data set” (2004).
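All cell lines were grown in 96-well plates and treated with compound for 48 hours. The concentration for 50% growth inhibition is given as GI50.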 Active and inactive are the calls of the source. Rule as the data show it: active = GI50 up to about 1.1 µM and inactive = higher.

Key:
Experiment in all cases: NCI tumour cell line growth inhibition, 48 h
[1] = system: HCC 2998
[2] = system: HOP-92
[3] = system: OVCAR-3
[4] = system: HL-60
[5] = system: A549
[6] = system: OVCAR-5
[7] = system: TK-10
[8] = system: OVCAR-8
[9] = system: SK-OV-3
[10] = system: SF-539
[11] = system: NCI-H23
[12] = system: NCI-H460
[13] = system: Malme-3M
[14] = system: IGROV-1
[15] = system: KM12
[16] = system: PC-3
[17] = system: CCRF-CEM
[18] = system: U-251
[19] = system: MCF7
[20] = system: LOX IMVI

| Structure (SMILES) | GI50 [1] | GI50 [2] | GI50 [3] | GI50 [4] | GI50 [5] | GI50 [6] | GI50 [7] | GI50 [8] | GI50 [9] | GI50 [10] | GI50 [11] | GI50 [12] | GI50 [13] | GI50 [14] | GI50 [15] | GI50 [16] | GI50 [17] | GI50 [18] | GI50 [19] | GI50 [20] |
| --- | --- | --- | --- | --- | --- | --- | --- | --- | --- | --- | --- | --- | --- | --- | --- | --- | --- | --- | --- | --- |
| COc1cc(/C=C(\C#N)c2nc3ccccc3o2)ccc1O | 20.9 µM (inactive) | 14.1 µM (inactive) | 14 µM (inactive) | 19.6 µM (inactive) | 17.8 µM (inactive) | 22 µM (inactive) | 24.4 µM (inactive) | 21.6 µM (inactive) | 17.7 µM (inactive) | 12 µM (inactive) | 24.2 µM (inactive) | 15 µM (inactive) | 19.8 µM (inactive) | 17.2 µM (inactive) | 17.6 µM (inactive) | 21.2 µM (inactive) | 26.3 µM (inactive) | 12.3 µM (inactive) | 10 µM (inactive) | – |
| O=C1CCC(NC(=O)c2ccccc2)C(=O)N1 (stereo unspecified) | > 100 µM (inactive) | > 100 µM (inactive) | > 100 µM (inactive) | – | > 100 µM (inactive) | > 100 µM (inactive) | > 100 µM (inactive) | > 100 µM (inactive) | > 100 µM (inactive) | > 100 µM (inactive) | > 100 µM (inactive) | > 100 µM (inactive) | > 100 µM (inactive) | > 100 µM (inactive) | > 100 µM (inactive) | > 100 µM (inactive) | – | > 100 µM (inactive) | > 100 µM (inactive) | > 100 µM (inactive) |
| CCc1nc2cc3cccnc3c(Cl)c2[nH]c1=O | > 100 µM (inactive) | 49.2 µM (inactive) | > 100 µM (inactive) | > 100 µM (inactive) | > 100 µM (inactive) | > 100 µM (inactive) | 89.5 µM (inactive) | > 100 µM (inactive) | 95.9 µM (inactive) | – | > 100 µM (inactive) | > 100 µM (inactive) | > 100 µM (inactive) | 71 µM (inactive) | > 100 µM (inactive) | > 100 µM (inactive) | > 100 µM (inactive) | 61.5 µM (inactive) | 5.86 µM (inactive) | > 100 µM (inactive) |
| C/C(=N\NC(=S)N1CCN(C2CCCCCC2)CC1)c1ccccn1 | < 0.0485 µM (active) | 0.0473 µM (active) | 0.01 µM (active) | 0.01 µM (active) | < 0.0379 µM (active) | – | 0.74 µM (active) | 0.01 µM (active) | 0.0565 µM (active) | 0.0927 µM (active) | 0.01 µM (active) | 0.01 µM (active) | 0.105 µM (active) | 0.01 µM (active) | 0.0197 µM (active) | 0.01 µM (active) | 0.01 µM (active) | < 0.0117 µM (active) | 0.01 µM (active) | 0.01 µM (active) |
| Oc1cc(Cl)cc2cccnc12 | 24.5 µM (inactive) | 3.25 µM (inactive) | 0.306 µM (active) | 0.229 µM (active) | 0.998 µM (active) | 4.85 µM (inactive) | 57.5 µM (inactive) | 0.528 µM (active) | 43.7 µM (inactive) | – | 1.29 µM (inactive) | 1.44 µM (inactive) | 3.02 µM (inactive) | 0.986 µM (active) | 4.78 µM (inactive) | 1.26 µM (inactive) | 0.288 µM (active) | 0.971 µM (active) | 1.04 µM (active) | 0.625 µM (active) |
| O=c1[nH]c(=S)[nH]n1C(=S)n1[nH]c(=S)[nH]c1=O | > 100 µM (inactive) | > 100 µM (inactive) | 41.7 µM (inactive) | 45.2 µM (inactive) | > 100 µM (inactive) | > 100 µM (inactive) | > 100 µM (inactive) | > 100 µM (inactive) | – | > 100 µM (inactive) | > 100 µM (inactive) | > 100 µM (inactive) | 36.7 µM (inactive) | > 100 µM (inactive) | > 100 µM (inactive) | > 100 µM (inactive) | 71.8 µM (inactive) | > 100 µM (inactive) | 2.94 µM (inactive) | 60.4 µM (inactive) |
| Cc1cc(C)n(C(=O)C(C)Sc2nnc(SC(C)C(=O)n3nc(C)cc3C)s2)n1 (stereo unspecified) | > 100 µM (inactive) | > 100 µM (inactive) | > 100 µM (inactive) | > 100 µM (inactive) | > 100 µM (inactive) | > 100 µM (inactive) | > 100 µM (inactive) | > 100 µM (inactive) | > 100 µM (inactive) | – | > 100 µM (inactive) | > 100 µM (inactive) | > 100 µM (inactive) | > 100 µM (inactive) | > 100 µM (inactive) | > 100 µM (inactive) | > 100 µM (inactive) | > 100 µM (inactive) | > 100 µM (inactive) | > 100 µM (inactive) |
| COc1cc2c(cc1OC)C1C(O)C(OC)C(Br)C3(Br)CCN(C2)C13 (stereo unspecified) | 70.3 µM (inactive) | 15.1 µM (inactive) | > 100 µM (inactive) | > 100 µM (inactive) | > 100 µM (inactive) | > 100 µM (inactive) | > 100 µM (inactive) | 41.3 µM (inactive) | > 100 µM (inactive) | > 100 µM (inactive) | > 100 µM (inactive) | 56.6 µM (inactive) | 42.6 µM (inactive) | > 100 µM (inactive) | 94.8 µM (inactive) | > 100 µM (inactive) | > 100 µM (inactive) | 47.1 µM (inactive) | > 100 µM (inactive) | – |
| O=C(NCCCCCCCCNC(=O)c1cccc2ccccc12)c1cccc2ccccc12 | > 95.7 µM (inactive) | 4.34 µM (inactive) | 16.7 µM (inactive) | > 100 µM (inactive) | 34.2 µM (inactive) | > 100 µM (inactive) | 12.1 µM (inactive) | 9.91 µM (inactive) | 10.7 µM (inactive) | 4.94 µM (inactive) | 23.6 µM (inactive) | 65.3 µM (inactive) | 44.8 µM (inactive) | 20.4 µM (inactive) | > 100 µM (inactive) | > 100 µM (inactive) | > 100 µM (inactive) | 12.5 µM (inactive) | 71.4 µM (inactive) | > 77.8 µM (inactive) |
| CCCCC[C@H]1CCCCCCCCCC(=O)OC2C(O[C@@H]3OC(C)[C@H](OC(=O)[C@@H](C)CC)C(O[C@@H]4OC(C)[C@H](O)C(O)[C@@H]4O)[C@@H]3OC(=O)[C@H](C)CC)[C@H](OC3C(O)[C@@H](O)C(C)O[C@H]3O1)OC(CO)[C@H]2O (stereo partly specified) | 17.2 µM (inactive) | 22.3 µM (inactive) | 17.9 µM (inactive) | 19 µM (inactive) | 16.8 µM (inactive) | 16.7 µM (inactive) | 20.1 µM (inactive) | 19.3 µM (inactive) | 15.6 µM (inactive) | – | 17.9 µM (inactive) | 18.2 µM (inactive) | 15.3 µM (inactive) | 17.1 µM (inactive) | 20 µM (inactive) | 16.2 µM (inactive) | 18.6 µM (inactive) | 17.9 µM (inactive) | 17.3 µM (inactive) | 17 µM (inactive) |
| O=C1CC(Sc2nc3ccc(I)cc3c(=O)n2Cc2ccccc2)C(=O)NN1 (stereo unspecified) | 17.6 µM (inactive) | 17.7 µM (inactive) | 16 µM (inactive) | 20 µM (inactive) | 28.4 µM (inactive) | 17.9 µM (inactive) | 16.8 µM (inactive) | 14.4 µM (inactive) | 16 µM (inactive) | 18.2 µM (inactive) | 15.7 µM (inactive) | 22.8 µM (inactive) | 18.1 µM (inactive) | 11.8 µM (inactive) | 17.2 µM (inactive) | 17 µM (inactive) | 8.28 µM (inactive) | 15.9 µM (inactive) | 15 µM (inactive) | 3.18 µM (inactive) |
| N#C/C(=C\c1cc(F)cc(F)c1)c1ccccn1 | 21.1 µM (inactive) | 20.5 µM (inactive) | 36.1 µM (inactive) | > 10 µM (inactive) | 28.6 µM (inactive) | 28.8 µM (inactive) | 30.8 µM (inactive) | 16 µM (inactive) | 61.8 µM (inactive) | 19.5 µM (inactive) | 26.1 µM (inactive) | 22.7 µM (inactive) | 25.9 µM (inactive) | 54.8 µM (inactive) | 22.1 µM (inactive) | 24.3 µM (inactive) | 18.1 µM (inactive) | 16.8 µM (inactive) | 26.9 µM (inactive) | – |
| NS(=O)(=O)c1ccc(-n2c(-c3cccs3)nc3ccc(I)cc3c2=O)cc1 | 22.1 µM (inactive) | 18.5 µM (inactive) | 16 µM (inactive) | 20.6 µM (inactive) | 18.7 µM (inactive) | 24.6 µM (inactive) | 25.4 µM (inactive) | 31.4 µM (inactive) | 22.6 µM (inactive) | – | 25.8 µM (inactive) | 25.5 µM (inactive) | 18.3 µM (inactive) | 21.7 µM (inactive) | 24.1 µM (inactive) | 26.6 µM (inactive) | – | 20 µM (inactive) | 23.3 µM (inactive) | 18.4 µM (inactive) |
| Nc1ccccc1NC(=O)c1ccc(CNC(=O)OCc2cccnc2)cc1 [ENTINOSTAT] | 1.41 µM (inactive) | 0.989 µM (active) | 1.51 µM (inactive) | 0.659 µM (active) | 3 µM (inactive) | 0.125 µM (active) | 0.92 µM (active) | 0.993 µM (active) | 4.9 µM (inactive) | 3.76 µM (inactive) | 1.38 µM (inactive) | 0.558 µM (active) | – | 2.78 µM (inactive) | > 23.4 µM (inactive) | 2.88 µM (inactive) | 0.757 µM (active) | 1.54 µM (inactive) | 0.845 µM (active) | 0.859 µM (active) |
